From article PMC4912613, “A broad analysis of resistance development in the malaria parasite” (Nature Communications, 2016)
pEC50: −log10 of the molar value. Read-outs that look alike come from different tables or passages of the source.

Experiments:
HepG2 = test: Hepatocyte toxicity; assay type: cell-based, human; conditions: for Hepatocyte Toxicity: HepG2; for EC50 fold shift compared to asexual stage: Hepatocyte Toxicity: hepatocyte toxicity / 3D7 EC50; for Liver Stage / Hepatocyte Toxicity: toxicity fold shift for the liver stage (hepatocyte toxicity vs liver stage EC50)
Description: As drugs that eliminate multiple stages of the parasite lifecycle will be critical components in global efforts to eliminate malaria, we were interested in knowing whether the compounds in our study had additional activities against either the liver and/or transmission stages of the parasite lifecycle. To determine this, we first evaluated the compounds in additional phenotypic assays. The first assay was a P. berghei hepatocyte invasion and development assay, which predicts causal prophylactic activity. Hepatocyte toxicity was additionally tested to identify false-positive activity in the liver stage due to host-cell toxicity. Assays were executed in duplicate using a 12-point EC50 curve at starting concentrations of 5 μM or 50 μM (Supplementary Table 1).
Liver-stage activity was determined by pretreating hepatic human cells (HepG2) for 2 h with compound in 1,536-well plates infected with freshly dissected P. berghei sporozoites. After 48 h of incubation, the viability of P. berghei exoerythrocytic forms was measured by luminescence reaction light output using BrightGlo (Promega). Varying levels of compound concentration were used (5 μM or 50 μM) due to the stock concentration supplied.

P. falciparum strain 3D7 = test: Asexual blood stage 3H-hypoxanthine incorporation assay, 3D7; assay type: cell-based, Plasmodium falciparum; conditions: Plasmodium falciparum, 3D7, asexual stage, P. falciparum 3D7; read-out: 3D7 EC50
Procedure: The 48-h assay was carried out in a 96-well format following standard methods using the ^3H-hypoxanthine incorporation assay. The raw EC50 values corresponding to this assay can be found in Supplementary Data 3. Briefly, this assay relies on the parasite incorporation of labelled hypoxanthine that is proportional to P. falciparum growth. A culture of parasitized RBCs (0.5% parasitemia with a percentage of ring stage higher than 70% of total parasitemia, 2.0% haematocrit) in RPMI-1640, […] and 5 μM hypoxanthine was exposed to drug serial dilutions. Plates were incubated for 24 h at 37 °C, 5% CO2, 5% O2 and 90% N2. After 24 h of incubation, ^3H-hypoxanthine was added and plates were incubated for an additional 24-h period. After that, parasites were harvested on a glass fibre filter using a TOMTEC Cell Harvester 96. Filters were dried and melt-on scintillator sheets were used to determine the incorporation of ^3H-hypoxanthine. Radioactivity was measured using a microbeta counter. Data were normalized using the incorporation of the positive (parasitized RBCs without drug) and negative (same culture with artesunate at 2 μM) controls. All assays were conducted in triplicate using three independently grown cultures, and EC50 values were determined using the XLfit add-in module for Excel (version 2.3.1) from Grafit (version 5.3.1.3), where parameter h is the assay hill slope, x is the compound concentration and y is the inhibition of growth effect. The XLfit equation is: […]

[1] = test system: GNF449-R2 (PfATP4 I203L and P990R, parent Dd2); test: Cross-resistance EC50 assay, GNF449-R2; assay type: cell-based; conditions: Plasmodium falciparum, SYBR green 72 hour assay, asynchronized parasites, 96-well or 1536-well format
Description: (§1) To evaluate potential overlapping activity against known antimalarial drug targets, we performed dose-response studies with each compound against our assembled set of drug-resistant lines and their corresponding parents, in an asexual blood stage proliferation assay (Table 1). Comparisons were made to the drug-sensitive strain 3D7 when a parent was unavailable (TM90C2A, W2 and Dd2). As laboratories conducted EC50 assays with different strains and protocols, all comparisons were made between assays from the same laboratory and under the same assay conditions. Compounds displaying >5-fold EC50 shifts relative to the parent or sensitive strain were flagged as having potentially non-novel targets. Average fold shifts per strain ranged from 0.82 to 2.34, with a median of 1.23 indicating there was not common resistance to any one resistant clone. No resistance patterns were observed when classifying the compounds based on chemical structure, but this was not surprising given the diversity of compounds chosen. On the other hand, given that these confirmed compounds were derived from larger unconfirmed hit lists to which some filtration criteria may have been applied (for example, elimination of obvious dihydrofolate reductase inhibitors[32]), some[10][11][12][13] pre-existing bias may exist in the set. […]
(§2) Alternatively, a SYBR Green-based proliferation approach was used for the 72-h assay, as previously described. Briefly, a culture of either synchronized or asynchronous parasitized RBCs (0.3% parasitemia and 4% haematocrit) in screening medium (identical to supplemented medium above except no serum was added) was exposed to serial drug dilutions. Plates were incubated at 37 °C and gassed with 93% N2, 4% CO2 and 3% O2 for 72 h. Following incubation, 10 × SYBR Green I (Invitrogen; supplied in 10,000 × concentration) in lysis buffer ([…], 5 mM EDTA, 0.16% Saponin wt per vol and 1.6% Triton X vol per vol) was added to the wells and the plates were incubated overnight at room temperature before plate reading. EC50 assays were repeated three times, taking the average EC50 value from each assay set, and removing any outliers using a single iteration of Grubbs' test, eliminating values with z-scores above the critical z-value (α=0.05). The raw EC50 values for synchronized parasites assayed in a 384-well format are listed in Supplementary Data 4. The raw EC50 values for asynchronous parasites assayed in a 96 or 1536-well format are listed in Supplementary Data 5.
(§3) EC50 values for each strain were compared with those of the corresponding parent strain to determine fold-shift changes and identify resistance. To minimize the cause variance between assays, all comparisons were conducted between strains assayed under identical conditions. A one-way ANOVA followed by a Dunnet's post-test was conducted in GraphPad Prism to identify significant changes between the parent and resistant strain.

Dd2 = test: Cross-resistance EC50 assay, Dd2 parent; assay type: cell-based, Plasmodium falciparum; conditions: for pEC50 / EC50: Plasmodium falciparum, DD2, 72 h; for pEC50: read-out: Dd2 (PARENT) Average EC50; for EC50: read-out: Dd2 (PARENT) EC50 (µM) Average EC50
Description: Multidrug resistance alleles, including mutations in P. falciparum chloroquine resistance transporter (pfcrt) and P. falciparum multi-drug resistance transporter 1 (pfmdr1) are very common in field isolates. Therefore, we sought to assess the degree to which pre-existing resistance alleles would contribute to a loss of potency for this diverse collection of small molecule compounds. Fifteen clones derived from three main parent lines were chosen to maximize diversity in mutated pathways and genetic backgrounds, thus representing the variety of resistance seen in the field: 3D7 (ref. [23]), W2 (ref. [24]) or Dd2 (ref. [25]). The 3D7 line originates from the clone of a Netherlands clinical isolate strain[23][26] and is generally considered to be drug sensitive, though it does convey resistance to sulfadoxine. Conversely, W2 (ref. [24], [27]) and Dd2 (ref. [25]) are multi-drug-resistant lines originating from the Indochina III/CDC isolate, which contain point mutations in pfcrt as well as amplifications in pfmdr1 and GTP cyclohydrolase.
as §1, §2, §3

[2] = test system: CYTbQi (cytb G33A, parent Dd2); test: Cross-resistance EC50 assay, CYTbQi; assay type: cell-based; conditions: Plasmodium falciparum, SYBR green 72 hour assay, synchronized parasites, 384-well format
Description: as §1, §2, §3

[3] = test system: GNF156R (PfCARL L830V, S1076I and M81I, parent Dd2); test: Cross-resistance EC50 assay, GNF156R; assay type: cell-based; conditions: Plasmodium falciparum, SYBR green 72 hour assay, asynchronized parasites, 96-well or 1536-well format
Description: as §1, §2, §3

[4] = test system: ProRS (prolyl t-RNA synthetase L482H, parent Dd2); test: Cross-resistance EC50 assay, ProRS; assay type: cell-based; conditions: Plasmodium falciparum, SYBR green 72 hour assay, synchronized parasites, 384-well format
Description: as §1, §2, §3

| Structure (SMILES) | Hepatocyte Toxicity (HepG2) | EC50 fold shift compared to asexual stage: Hepatocyte Toxicity (HepG2) | Liver Stage / Hepatocyte Toxicity (HepG2) | pEC50 (P. falciparum strain 3D7) | EC50 [1] | pEC50 (Dd2) | EC50 (Dd2) | pEC50 ([2]; DD2, CYTbQi strain) | EC50 [3] | pEC50 ([4]; DD2, ProRS strain) | pEC50 ([2]; strain CYTbQi (Dd2 parent)) | pEC50 ([4]; strain ProRS (Dd2 parent)) | EC50 fold-shift, Dd2 compared with 3D7 (Dd2; loss of efficacy) |
| --- | --- | --- | --- | --- | --- | --- | --- | --- | --- | --- | --- | --- | --- |
| COc1ccc(NC(=O)N2CCCCN3[C@H](CN)[C@H](c4ccc(C#Cc5ccccc5)cc4)[C@@H]3C2)cc1 [BRD1095] | > 50 µM | > 1250 | > 605 | 7.40 | 0.00119 µM | 7.89 | 0.00257 µM | 7.74 | 0.00166 µM | 7.77 | – | – | – |
| CCN(CC)CCn1c(=N)n(CC(O)c2ccc(Cl)c(Cl)c2)c2ccccc21.Cl (centres unmarked) [MMV000248] | 20.64 µM | 67.45 | 3.72 | 6.51 | 0.497 µM | 6.37 | 0.413 µM | – | 0.432 µM | – | 6.47 | 6.44 | – |
| CCOc1cc2c(cc1OCC)C(c1cc(Cl)ccc1O)NCC2 (centres unmarked) [MMV000478] | > 5 µM | > 5 | – | 5.97 | 0.648 µM | 6.10 | 0.843 µM | – | 0.764 µM | – | 6.09 | 6.21 | – |
| CCCOCc1cc(CN2CCN(c3cccc(Cl)c3)CC2)c(O)c2ncccc12 [MMV000787] | 2.43 µM | – | 4.05 | 6.03 | 1.7 µM | 6.23 | 1.59 µM | – | 1.63 µM | – | 6.28 | 6.32 | – |
| CN1CCN(c2ccc(Nc3c4ccccc4nc4ccccc34)cc2)CC1 [MMV006172] | 4.554 µM | – | 2.21 | 7.02 | 0.31 µM | 6.77 | 0.298 µM | – | 0.32 µM | – | 6.97 | 6.90 | – |
| CCCN(CCC)CC(O)COc1ccccc1C(=O)Nc1ccccc1 (centres unmarked) [MMV006455] | > 5 µM | > 9.4 | – | 6.28 | 0.309 µM | 5.92 | 0.408 µM | – | 0.083 µM | – | 6.70 | 6.05 | – |
| COc1cc2cc(C(=O)Nc3ccccc3)c(N)nc2cc1OC [MMV006767] | > 50 µM | – | – | 6.02 | 0.329 µM | 5.80 | 0.215 µM | – | 0.379 µM | – | 5.72 | 5.76 | – |
| Cc1cc(Nc2ccc(OCc3ccccc3)cc2)nc2cc(O)ccc12 [MMV007181] | 7.952 µM | 22.98 | 1.66 | 6.46 | 0.153 µM | 6.73 | 0.19 µM | – | 0.163 µM | – | 6.84 | 6.98 | – |
| Brc1ccc(Nc2nc3ccccc3nc2Nc2ccc(Br)cc2)cc1 [MMV007224] | 1.868 µM | 8.41 | 3.63 | 6.65 | 0.717 µM | 6.56 | 0.714 µM | – | 0.712 µM | – | 6.49 | 6.53 | – |
| Cc1ccc(Cn2c(N3CCC(C(=O)NCc4cccs4)CC3)nc3ccccc32)cc1 [MMV007564] | > 6.6 µM | > 57 | > 21 | 6.24 | 0.739 µM | 6.41 | 0.342 µM | – | 1.62 µM | – | 6.24 | 6.38 | – |
| Cc1nc2ccc3ccc(CNc4ccc(C(=O)CC(CCC(=O)O)C(=O)O)cc4)cc3c2c(=O)[nH]1.Cl (centres unmarked) [MMV027634] | 11.61 µM | 504.78 | – | 7.64 | 0.204 µM | 7.46 | 0.124 µM | – | 0.229 µM | – | 7.38 | – | – |
| CN(C)CCCN(C)C(=O)C1Cc2cc(-c3ccccc3)ccc2N1S(=O)(=O)c1ccccc1 (centres unmarked) [MMV028895] | – | – | – | – | 2.76 µM | 6.46 | 6.01 µM | – | 3.92 µM | – | 6.13 | 6.43 | 7.1 × |
| c1cncc(-c2cc(N3CCC(CN4CCOCC4)CC3)nc(-c3ccncc3)n2)c1 [MMV668399] | > 50 µM | – | > 7 | 7.08 | 0.938 µM | 7.06 | 0.984 µM | – | 0.827 µM | – | 6.79 | – | – |
| COc1ccc2c3c([nH]c2c1)[C@H](CO)N(C(C)=O)CC31CCN(C(=O)Nc2ccccc2F)CC1 [MMV673482] | – | – | – | – | 0.007 µM | 7.15 | 0.005 µM | 7.08 | – | 7.03 | – | – | – |
